Measurements reported in patent US20150065717A1, “NIPECOTIC ACID DERIVATIVE AND USE THEREOF FOR MEDICAL PURPOSES” (Toray Industries, Inc., priority 2012, published 2015).

Legend:
[1] = system: rat monocrotaline-administered pulmonary hypertension model; assay: Rat monocrotaline-administered pulmonary hypertension model, administration from day of monocrotaline; type: in vivo, rat (Wistar strain); conditions: for heart rate vs pulmonary hypertension control group / systemic systolic pressure vs pulmonary hypertension control group: Dunnett's test; for right ventricular systolic pressure vs pulmonary hypertension control group / right ventricular weight ratio vs pulmonary hypertension control group: Dunnett's test p<0.05
Description: Example Compound 1 or 2 was administered to a rat monocrotaline-administered pulmonary hypertension model (Journal of Pharmacological Sciences, 2009, vol. 111, p. 235-243), and the therapeutic effect of the nipecotic acid derivative (I) or a pharmaceutically acceptable salt thereof on pulmonary hypertension was evaluated.
Rats (Wistar strain, male, 5 weeks old; JAPAN SLC, Inc.) with pulmonary hypertension induced by subcutaneous administration of an aqueous monocrotaline (Sigma Corporation) solution (60 mg/kg) to the back were provided as “group with induced pulmonary hypertension”. On the other hand, rats to which water for injection was similarly administered were provided as “normal group”.
To rats in the group with induced pulmonary hypertension, Example Compound 1 (3, 10 or 30 mg/kg) or a positive control compound tadalafil (10 mg/kg) was orally administered once per day for 24 days from the day of administration of monocrotaline. The Example Compound 1 and tadalafil were used as suspensions in 0.5% aqueous methyl cellulose solution supplemented with 0.5% Tween 80. The groups in which Example Compound 1 was administered at doses of 3, 10 and 30 mg/kg were provided as “Example Compound 1 (3 mg/kg)-administered group”, “Example Compound 1 (10 mg/kg)-administered group” and “Example Compound 1 (30 mg/kg)-administered group”, respectively. The group in which tadalafil was administered at a dose of 10 mg/kg was provided as “tadalafil-administered group”. In addition, for comparative control, 0.5% aqueous methyl cellulose solution supplemented with 0.5% Tween 80 was similarly administered to rats in the group with induced pulmonary hypertension, to provide “pulmonary hypertension control group”. Similarly, 0.5% aqueous methyl cellulose solution supplemented with 0.5% Tween 80 was administered in the normal group.
On the next day of the last administration of the test substance, the right ventricular systolic pressure, systemic systolic pressure and heart rate were measured. The measurement of the right ventricular systolic pressure and the systemic systolic pressure was carried out using an amplifier for blood pressure measurement (Nihon Kohden Corporation). The measurement of the heart rate was carried out using an instant heart rate meter unit (Nihon Kohden Corporation). On the same day, the body weight, lung wet weight, and wet weights of the right ventricle, left ventricle and septum were measured to determine the right ventricular weight ratio (right ventricular weight/(septum weight+left ventricular weight)) and the lung weight ratio (lung weight/body weight).
The lungs were stored by immersion in formalin after measurement of the wet weight. The formalin-fixed lungs were embedded in paraffin, and sections were prepared. Immunostained tissue samples were prepared using an anti-sEH antibody to study expression of sEH. Pathological specimens were prepared by Elastica-van Gieson staining to study thickening of pulmonary arteries. Immunostained tissue samples were prepared using an anti-PCNA antibody to study cell growth. The right ventricle was stored by immersion in formalin after measurement of the wet weight. The formalin-fixed right ventricle was embedded in paraffin, and sections were prepared. Pathological specimens were prepared by HE staining to study myocardial hypertrophy.
The removed lungs were homogenized in a buffer, and 14,15-EET and 14,15-DHET were extracted. The extracted 14,15-EET was hydrolyzed for conversion to 14,15-DHET, and the 14,15-DHET concentration was measured by the ELISA method. The increase in the concentration of 14,15-DHET due to the hydrolysis was regarded as the 14,15-EET concentration, and the 14,15-EET/14,15-DHET ratio was determined.
FIGS. 4 to 6 show the results on the right ventricular systolic pressure, right ventricular weight ratio and lung weight ratio determined on the next day of the last administration of the test compound. […]

[2] = system: rat diabetic nephropathy model; assay: Pharmacological effect in rat diabetic nephropathy model (streptozotocin); type: in vivo, rat (spontaneously hypertensive rat); conditions: mean±standard error, n=6
Description: Example Compound 1 was administered to a rat diabetic nephropathy model (International Journal of Molecular Medicine, 2007, vol. 19, p. 571-579; Hypertension, 1998, vol. 32, p. 778-785), and the therapeutic effect of the nipecotic acid derivative (I) or a pharmaceutically acceptable salt thereof on chronic renal disease with diabetic nephropathy was evaluated.
Rats (spontaneously hypertensive rat, male, 12 or 13 weeks old; Charles River Laboratories Japan, Inc.) with diabetic nephropathy induced by administration of an aqueous streptozotocin (Enzo Life Sciences, Inc.) solution (40 mg/kg) into the tail vein were provided as “group with induced diabetic nephropathy”. On the other hand, rats to which water for injection was similarly administered were provided as “untreated group”.
Six weeks after administration of streptozotocin, urine was collected using a metabolic cage at room temperature for 24 hours. The urinary albumin concentration in the collected urine was measured by the ELISA method. From the urinary albumin concentration and the urine weight, the amount of urinary albumin excretion was calculated.
To rats showing pathological conditions of diabetic nephropathy in the group with induced diabetic nephropathy, Example Compound 1 (10 mg/kg) or a positive control compound imidapril (2 mg/kg) was orally administered once per day for 20 days from Day 8 after the administration of streptozotocin. […]
After the last administration of the test substance on Day 27 after administration of streptozotocin, urine was collected using a metabolic cage at room temperature for 24 hours. The urinary albumin concentration in the collected urine was measured by the ELISA method. From the urinary albumin concentration and the urine weight, the amount of urinary albumin excretion was calculated. In addition, on Day 18 after administration of streptozotocin, the systemic systolic pressure was measured by the tail-cuff method. On Day 29 after administration of streptozotocin, blood was collected from the abdominal aorta of each rat, and the plasma glucose concentration was measured. […]

[3] = 3 mg/kg orally once per day for 24 days
[4] = 10 mg/kg orally once per day for 24 days from day of monocrotaline
[5] = 10 mg/kg orally once per day for 24 days
[6] = 30 mg/kg orally once per day for 24 days from day of monocrotaline
[7] = 30 mg/kg orally once per day for 24 days

SMILES | heart rate vs pulmonary hypertension control group [1, 3] | systemic systolic pressure vs pulmonary hypertension control group [1, 3] | thickening of pulmonary arteries in lungs vs pulmonary hypertension control group ([1]; 3 mg/kg, Elastica-van Gieson staining) | myocardial hypertrophy of the right ventricle vs pulmonary hypertension control group ([1]; 3 mg/kg, HE staining) | cell growth in lungs vs pulmonary hypertension control group ([1]; 3 mg/kg, anti-PCNA immunostaining) | lung weight ratio vs pulmonary hypertension control group [1, 4] | right ventricular systolic pressure vs pulmonary hypertension control group [1, 4] | right ventricular weight ratio vs pulmonary hypertension control group [1, 4] | heart rate vs pulmonary hypertension control group [1, 5] | systemic systolic pressure vs pulmonary hypertension control group [1, 5] | 14,15-EET/14,15-DHET ratio in lungs vs pulmonary hypertension control group ([1]; 10 mg/kg, ELISA) | right ventricular systolic pressure vs pulmonary hypertension control group [1, 6] | right ventricular weight ratio vs pulmonary hypertension control group [1, 6] | heart rate vs pulmonary hypertension control group [1, 7] | systemic systolic pressure vs pulmonary hypertension control group [1, 7] | amount of urinary albumin excretion ([2]; Day 27 after streptozotocin, orally once per day for 20 days from Day 8 (Example Compound 1 10 mg/kg, imidapril 2 mg/kg)) [mg/day] | systemic systolic pressure ([2]; day 18 after streptozotocin, 10 mg/kg orally once per day, tail-cuff) [mmHg]
CCC(=O)NC1(C(=O)N2CCC[C@@H](C(=O)NCc3ccc(C#N)cc3OC(F)(F)F)C2)CCC1 [Example Compound 1, (R)—N-(4-cyano-2-(trifluoromethoxy)benzyl)-1-(1-propionamidocyclobutanecarbonyl)piperidine-3-carboxamide] | not significantly different | not significantly different | less thickened pulmonary arteries | less myocardial hypertrophy | less cell growth | statistically significantly lower | statistically significantly lower | statistically significantly lower | not significantly different | not significantly different | higher | statistically significantly lower | statistically significantly lower | not significantly different | not significantly different | 5.41 ± 1.13 | 199±6
CC(C)(NS(C)(=O)=O)C(=O)N1CCC[C@@H](C(=O)NCc2ccc(C#N)cc2OC(F)(F)F)C1 [Example Compound 2, (R)—N-(4-cyano-2-(trifluoromethoxy)benzyl)-1-(2-methyl-2-(methylsulfonamido)propanoyl)piperidine-3-carboxamide] | – | – | – | – | – | lower | statistically significantly lower | statistically significantly lower | not significantly different | not significantly different | – | – | – | – | – | – | –
